Patent US20260166061A1, “COMPOUND, RACEMATE OF SAID COMPOUND, SALT OF SAID COMPOUND OR SAID RACEMATE, COMPOSITION, ANTI-INFLAMMATORY AGENT, THERAPEUTIC AGENT FOR DEMENTIA, AND THERAPEUTIC AGENT FOR RETT SYNDROME” (INSTITUTE OF RHEOLOGICAL FUNCTION OF FOOD CO., LTD., priority 2021, published 2026)

What was measured:
p65 (NFkB) in BV2 cells = assay: LPS-induced nuclear p65 expression in BV2 cells (Western blotting); format: cell-based, mice; settings: 5 μg/mL, 16 hours pre-culture, LPS (1 g/mL) 6 hours, 20 μg nuclear protein, n=2, FIG. 1
Protocol: (§1) Under conditions where KIT-2 or KIT-13 was present (5 μg/mL), or where neither KIT-2 nor KIT-13 was present, BV2 cells, which are microglial cells in mice, were cultured for 16 hours in DMEM medium supplemented with 2% fetal bovine serum (FBS). Thereafter, treatment with LPS ([…]) was carried out for 6 hours. Subsequently, nuclear protein was extracted from the cells, and p65 was detected by the Western blotting method. The antibody used for the detection was an anti-p65 NFkB antibody (Ref no. 51-0500, manufactured by Invitrogen).

IL-1β in BV2 cells = assay: LPS-induced IL-1β protein in BV2 cell culture supernatant (ELISA); format: cell-based, mice; settings: 5 μg/mL, 16 hours pre-culture, LPS (1 g/mL) 6 hours, n=4, FIG. 2
Protocol: as §1
In addition, 20 μL of the cell culture supernatant after the LPS treatment was subjected to detection of the inflammatory cytokine IL-1ß by the ELISA method using a mouse IL-1β ELISA kit (manufactured by R&D Systems; Catalog No. DY401-05).

[1] = Evaluation of body weight of MeCP2-deficient mice; format: in vivo; settings: male MeCP2-deficient mice, 20 ng/g body weight, drinking water
Protocol: MeCP2-deficient mice to which KIT-13 was administered were subjected to measurement of the body weight every week, and changes in the body weight were evaluated. For the test, 4-week-old male MeCP2-deficient mice were used. The MeCP2-deficient mice were divided into the following two groups: a KIT-13 administration group (KO-KIT-13, n=14) and a control group (KO, n=21). In the KIT-13 administration group, KIT-13 was administered at 20 ng/g body weight by drinking-water administration in the same manner as in Test Example 3. In the control group, only water was given in the same manner.

MeCP2-deficient mice [2] = assay: RTT-like scoring using RTT model mice; format: in vivo; settings: male MeCP2-deficient mice, 20 ng/g body weight, drinking water, scored weekly from 5 weeks old, FIG. 5
Protocol: RTT-like symptoms in MeCP2-deficient mice to which KIT-13 was administered were evaluated by RTT-like scoring. For the test, 4-week-old male MeCP2-deficient mice were used. The MeCP2-deficient mice were divided into the following two groups: a KIT-13 administration group (KO-KIT-13, n=14) and a control group (KO, n=15). In the KIT-13 administration group, KIT-13 was administered at 20 ng/g body weight by drinking-water administration in the same manner as in Test Example 3. In the control group, only water was given in the same manner.
The RTT-like scoring was carried out once a week from 5 weeks old, for the following items 1 to 6.
Each mouse was observed after gently placing the mouse on a platform. • 0 points: Same as the wild type. • 1 point: Lower mobility compared to the wild type. (The period of freezing after the first placement on the platform is longer, or the period during which the mouse is standing still is longer.) • 2 points: No spontaneous movement after the placement on the platform. The mouse can move in response to mild stimuli or food placed nearby.
• 0 points: Same as the wild type. • 1 point: Due to a severe reduction in the pelvis, the mouse spreads the hindlimbs apart during walking or running, compared to the wild type. Waddling gait.
Staggering gait. • 2 points: More remarkable abnormality. […]

MeCP2-deficient mice [3] = assay: Evaluation of lifetime using RTT model mice; format: in vivo; settings: male MeCP2-deficient mice, 20 ng/g body weight, drinking water twice a week
Protocol: For the test, 4-week-old male MeCP2-deficient mice were used. The MeCP2-deficient mice were divided into the following two groups: a KIT-13 administration group (KO-KIT-13, n=14) and a control group (KO, n=28). The body weight of each mouse was measured in advance. For the KIT-13 administration group, KIT-13 was suspended in water by ultrasonication, and administered twice a week by drinking-water administration such that 20 ng/g body weight of KIT-13 was taken. On the other hand, in the control group, only water was given in the same manner.

[4] = system: c57BL6J mice with LPS-induced memory impairment; assay: Water maze test in LPS-induced memory impairment model mice; format: in vivo; settings: 10 mg/50 kg/day in drinking water for 30 days plus 7 days LPS (250 mg/kg/day), sixth trial, P<0.01, n=5, FIG. 7
Protocol: The effect of KIT-13 on LPS-induced memory impairment in mice was studied. Eight-week-old male c57BL6J mice (5 individuals per group; n=5) were allowed to drink KIT-13 for 30 days at a dose of 10 mg/50 kg/day, and then LPS treatment (250 mg/kg/day) was carried out for 7 days while the mice were similarly allowed to drink KIT-13. Thereafter, a water maze test was carried out for 2 days (three trials per day).
The time required for the mice to reach an escape platform (arrival time) was as illustrated in FIG. 7. Intergroup comparison was carried out using the ANOVA test and the Bonferroni post-hoc test. […] Thus, KIT-13 is effective for improvement of the brain function (cognitive function).

IL-1β gene in BV2 cells = assay: LPS-induced IL-1β gene expression in BV2 cells (PCR); format: cell-based, mice; settings: 5 μg/mL, 16 hours pre-culture, LPS (1 μg/mL) 2 hours, vs. no addition, β-actin internal standard, FIG. 3
Protocol: Under conditions where sPIs or KIT-13 was present (5 μg/mL), or where neither sPIs nor KIT-13 was present, BV2 cells were cultured for 16 hours in DMEM medium supplemented with 2% fetal bovine serum (FBS). Thereafter, treatment with LPS (1 μg/mL) was carried out for 2 hours. Subsequently, cellular RNA was extracted using the TRIzol (trademark) reagent, and cDNA was prepared from the RNA using a PrimeScript (trademark) 1st strand cDNA Synthesis Kit (manufactured by Takara; 6110). Using TaKaRa Taq (trademark) (manufactured by Takara; R110A), the expression levels of the IL-1β gene and, as an internal standard, the β-actin gene were quantified by polymerase chain reaction (PCR).
The base sequences of the forward primer and the reverse primer for the IL-1ß gene are shown in SEQ ID NOs: 1 and 2, respectively. The base sequences of the forward primer and the reverse primer for the β-actin gene are shown in SEQ ID NOs: 3 and 4, respectively.

CCCCC/C=C\C/C=C\C/C=C\C/C=C\CCCC(=O)O[C@H](COCCCCCCCCCCCCCCCCCC)COP(=O)(O)OCCN [KIT-13]
LPS-induced nuclear accumulation of p65 (p65 (NFkB) in BV2 cells): remarkably suppressed | LPS-induced expression of the inflammatory cytokine IL-1β (protein per 5000 cells) (IL-1β in BV2 cells): remarkably decreased | toxicity (concluded from body weight) [1]: non-toxic | changes in the body weight vs control group ([1]; weekly measurement, t-test, FIG. 6): No statistical difference | RTT-like score (MeCP2-deficient mice [2]): reduced the RTT-like score | survival rate vs control group (MeCP2-deficient mice [3]; FIG. 4): higher survival rate than the control group | number of days required for the survival rate to decrease to 50% (MeCP2-deficient mice [3]; n=14, control 64.5 days): 90 days | memory (arrival time at escape platform) vs LPS group [4]: showed improvement in the memory | expression of the IL-1β gene (IL-1β gene in BV2 cells): significantly suppressed
